Data reported in article PMC9025560, “A Comparison of Evans Blue and 4-(p-Iodophenyl)butyryl Albumin Binding Moieties on an Integrin αvβ6 Binding Peptide” (Pharmaceutics, 2022).
Like-named read-outs stand apart in the source and are kept apart here.

Columns and labels:
[1] = Stability in human serum at 37 °C; type: in vitro ADME; settings: read-out: Stability in human serum, % intact
Protocol: For serum stability, mouse serum or human serum (0.5 mL, both purchased from Sigma-Aldrich) was combined with an aliquot of each of the peptides [^64Cu]1 and [^64Cu]2 (≤25 μL, 14.8–22.2 MBq) and incubated at 37 °C. At each time point (1, 4, and 24 h) an aliquot (50–200 μL) was taken, proteins precipitated with ethanol, and removed by pelleting at 1500 (RCF) for 4 min. The ethanol solution was diluted with water (1 mL) and analyzed by RP-HPLC as previously described.

BxPC-3 xenograft tumors = test: Biodistribution in mice bearing BxPC-3 xenograft tumors; type: in vivo
Protocol: (§1) All animal procedures conformed to the Animal Welfare Act and were approved by the University of California, Davis Institutional Animal Care and Use Committee. Female athymic nu/nu-nude mice (6–8 weeks old) were purchased from Charles River Laboratories (Wilmington, MA, USA) and provided food and water on an ad libitum basis. BxPC-3 xenografts were implanted according to previous methods. Briefly, BxPC-3 cells were evaluated by flow cytometry to confirm integrin αvβ6 expression levels, injected subcutaneously into the left flank [5 million in 100 μL of a 1:1 mixture of serum-free RPMI and GFR Matrigel (Corning, New York, NY, USA)], and allowed to grow for approximately 3 weeks until tumors reached a diameter of 0.5–1 cm.
(§2) For biodistribution studies the [^64Cu]1–4 (3.7–5.55 MBq) in PBS (100 μL, pH 7.2) was injected intravenously (i.v.) via catheter into the tail vein. Following a conscious uptake period, the mice were anesthetized (5% isoflurane), euthanized, and dissected ([^64Cu]1 and [^64Cu]2, n = 3/radiolabeled peptide/time point; 4, 24, and 48 h p.i.; the 72 h time point was obtained from the imaging animals after the 72 h PET/CT scans; compounds [^64Cu]3 and [^64Cu]4, n = 2/radiolabeled compound at 4 h p.i.). Tissues were rapidly collected, weighed, and radioactivity measured with a γ-counter. Decay-corrected radioactivity concentrations are expressed as the percentage of injected dose per gram of tissue (% ID/g). Data are reported as mean ± standard deviation (SD) (Figure S20, S21 and S25).

[2] = as above; type: in vivo; settings: female, athymic nu/nu-nude, mouse, in vivo, iv, total radioactivity, 4 h p.i., i.v.
Protocol: as §1, §2

SMILES: CC(C)C[C@H](NC(=O)[C@H](CC(=O)O)NC(=O)CNC(=O)[C@H](CCCNC(=N)N)NC(=O)[C@H](CC(C)C)NC(=O)[C@H](CC(N)=O)NC(=O)[C@@H]1CCCN1C(=O)[C@@H](NC(=O)[C@H](C)NC(=O)[C@H](CC(N)=O)NC(=O)CCOCCOCCOCCOCCOCCOCCOCCOCCOCCOCCOCCOCCOCCOCCOCCOCCOCCOCCOCCOCCOCCOCCOCCOCCOCCOCCOCCOCCNC(=O)[C@H](CCCCNC(=O)[C@H](CC(=O)O)NC(=O)CCCNC(=O)CCCc1ccc(I)cc1)NC(=O)CN1CCN(CC(=O)O)CCN(CC(=O)O)CCN(CC(=O)O)CC1)C(C)C)C(=O)N[C@@H](CCC(N)=O)C(=O)N[C@H](C(=O)N[C@@H](CC(C)C)C(=O)N[C@@H](C)C(=O)N[C@@H](CCC(N)=O)C(=O)N[C@@H](CCCNC(=N)N)C(=O)N[C@H](C(=O)N[C@@H](C)C(=O)N[C@@H](CCCNC(=N)N)C(=O)N[C@H](C(=O)NCCOCCOCCOCCOCCOCCOCCOCCOCCOCCOCCOCCOCCOCCOCCOCCOCCOCCOCCOCCOCCOCCOCCOCCOCCOCCOCCOCCOCCC(N)=O)[C@@H](C)O)C(C)C)C(C)C [[^64Cu]2, [^64Cu]Cu DOTA-IP-αvβ6-BP, metal not drawn]
- remaining at 1 h ([1]; 1 h): 99%
- remaining at 4 h ([1]; 4 h): 93%
- remaining at 24 h ([1]; 24 h): 90%
- Tumor-Blood ratio (BxPC-3 xenograft tumors; 4 h p.i.): > 4/1
- Tumor-Kidney ratio (BxPC-3 xenograft tumors; 4 h p.i.): 0.23 ± 0.02
- Tumor-Lg Intestines ratio (BxPC-3 xenograft tumors; 4 h p.i.): 0.78 ± 0.10
- Tumor-Liver ratio (BxPC-3 xenograft tumors; 4 h p.i.): 3.2–4.9
- Tumor-Muscle ratio (BxPC-3 xenograft tumors; 4 h p.i.): > 8/1
- Tumor-Sm Intestines ratio (BxPC-3 xenograft tumors; 4 h p.i.): 0.80 ± 0.07
- Tumor-Stomach ratio (BxPC-3 xenograft tumors; 4 h p.i.): 0.43 ± 0.07
- BxPC-3 Tumor uptake (BxPC-3 xenograft tumors; 4 h p.i., i.v.): > 7.5 % ID/g
- Kidneys uptake (BxPC-3 xenograft tumors; 4 h p.i., i.v.): 33.6 ± 5.4 % ID/g
- Stomach uptake (BxPC-3 xenograft tumors; 4 h p.i., i.v.): 18.1 ± 2.9 % ID/g
- Tumor-Blood ratio (BxPC-3 xenograft tumors; 4 h p.i., listed as [64Cu]2): 6.15 ± 0.47
- Tumor-Liver ratio (BxPC-3 xenograft tumors; 4 h p.i., listed as [64Cu]2): 4.89 ± 0.63
- Tumor-Muscle ratio (BxPC-3 xenograft tumors; 4 h p.i., listed as [64Cu]2): 8.16 ± 2.41
- Tumor-Blood ratio (BxPC-3 xenograft tumors; 24 h p.i.): 21.86 ±5.94
- Tumor-Kidney ratio (BxPC-3 xenograft tumors; 24 h p.i.): 0.20 ± 0.06
- Tumor-Lg Intestines ratio (BxPC-3 xenograft tumors; 24 h p.i.): 0.81 ±0.24
- Tumor-Liver ratio (BxPC-3 xenograft tumors; 24 h p.i.): 2.72 ± 0.62
- Tumor-Muscle ratio (BxPC-3 xenograft tumors; 24 h p.i.): 5.87 ±2.04
- Tumor-Sm Intestines ratio (BxPC-3 xenograft tumors; 24 h p.i.): 0.97 ±0.27
- Tumor-Stomach ratio (BxPC-3 xenograft tumors; 24 h p.i.): 0.39 ±0.09
- Tumor-Blood ratio (BxPC-3 xenograft tumors; 48 h p.i.): 22.11 ± 14.41
- Tumor-Kidney ratio (BxPC-3 xenograft tumors; 48 h p.i.): 0.35 ± 0.14
- Tumor-Lg Intestines ratio (BxPC-3 xenograft tumors; 48 h p.i.): 1.10 ± 0.47
- Tumor-Liver ratio (BxPC-3 xenograft tumors; 48 h p.i.): 2.46 ± 0.97
- Tumor-Muscle ratio (BxPC-3 xenograft tumors; 48 h p.i.): 6.68 ± 2.42
- Tumor-Sm Intestines ratio (BxPC-3 xenograft tumors; 48 h p.i.): 1.81 ± 0.61
- Tumor-Stomach ratio (BxPC-3 xenograft tumors; 48 h p.i.): 0.67 ± 0.27
- Tumor-Blood ratio (BxPC-3 xenograft tumors; 72 h p.i.): 28.82 ± 2.64
- Tumor-Kidney ratio (BxPC-3 xenograft tumors; 72 h p.i.): 0.44 ± 0.14
- Tumor-Lg Intestines ratio (BxPC-3 xenograft tumors; 72 h p.i.): 1.63 ±0.32
- Tumor-Liver ratio (BxPC-3 xenograft tumors; 72 h p.i.): 3.77 ± 0.72
- Tumor-Muscle ratio (BxPC-3 xenograft tumors; 72 h p.i.): 6.70 ±1.74
- Tumor-Sm Intestines ratio (BxPC-3 xenograft tumors; 72 h p.i.): 4.01 ±1.10
- Tumor-Stomach ratio (BxPC-3 xenograft tumors; 72 h p.i.): 1.55 ±0.08
- Fold increase in tumor accumulation over non-ABM [64Cu]Cu DOTA-αvβ6-BP (BxPC-3 xenograft tumors; BxPC-3 tumor model): > 3 fold
- tissue uptake at 4 h ([2]; read-out: Blood uptake): 1.21 ± 0.16 %ID/g
- tissue uptake at 4 h ([2]; read-out: Bone uptake): 0.59 ± 0.15 %ID/g
- tissue uptake at 4 h ([2]; read-out: Brain uptake): 0.12 ± 0.002 %ID/g
- tissue uptake at 4 h ([2]; read-out: BxPC-3 Tumor uptake): 7.6 ± 0.43 %ID/g
- tissue uptake at 4 h ([2]; read-out: Fecal Matter radioactivity): 9.32 ± 1.08 %ID/g
- tissue uptake at 4 h ([2]; read-out: Gall Bladder uptake): 4.33 ± 2.64 %ID/g
- tissue uptake at 4 h ([2]; read-out: Heart uptake): 2.22 ± 0.11 %ID/g
- tissue uptake at 4 h ([2]; read-out: Kidneys uptake): 33.6 ± 5.39 %ID/g
- tissue uptake at 4 h ([2]; read-out: Lg. Intestines uptake): 9.83 ± 0.69 %ID/g
- tissue uptake at 4 h ([2]; read-out: Liver uptake): 1.58 ± 0.26 %ID/g
- tissue uptake at 4 h ([2]; read-out: Lung uptake): 2.25 ± 0.39 %ID/g
- tissue uptake at 4 h ([2]; read-out: Muscle uptake): 0.99 ± 0.3 %ID/g
- tissue uptake at 4 h ([2]; read-out: Pancreas uptake): 1.04 ± 0.09 %ID/g
- tissue uptake at 4 h ([2]; read-out: Skin uptake): 2.72 ± 0.31 %ID/g
- tissue uptake at 4 h ([2]; read-out: Sm. Intestines uptake): 9.55 ± 1.21 %ID/g
- tissue uptake at 4 h ([2]; read-out: Spleen uptake): 0.41 ± 0.13 %ID/g
- tissue uptake at 4 h ([2]; read-out: Stomach uptake): 18.1 ± 2.91 %ID/g
- tissue uptake at 4 h ([2]; read-out: Urine radioactivity): 25.1 ± 6.79 %ID/g
